Measured values from the supplement of paper PMC8988213.
Where a name gives a salt, the structure may show the parent alone.

Legend:
[1] = system: ID211 patient-derived PDAC 2D line (post-FOLFIRINOX); assay: normalised area under dose-response curve (viability relative to DMSO, 7 doses up to 10 µM) (fraction (AUC)); higher = less sensitive (more viability retained); conditions: 72 h; top dose: 10 µM
Summary of the method: (§1)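 2D PDAC cells grown out from patient-derived organoids were robotically seeded in 96-well plates at 1,500–3,000 cells/well and kept overnight at 37°C in 5% CO2. Compounds from a SelleckChem library were then applied for 72 h at seven concentrations, made as a 3-fold dilution series with 10 µM as the highest. CellTiter-Glo luminescence was measured 10 min later. Viability was normalised to control wells, and the GRmetrics R package was used to derive the area under the dose-response curve.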

[2] = system: ID188 patient-derived PDAC 2D line (pre-FOLFIRINOX); assay: as above; conditions: 72 h; top dose: 10 µM
Summary of the method: as §1

Row | SMILES | normalised area under dose-response curve [1] | normalised area under dose-response curve [2]
1 | Cn1cc(C2=C(c3cn(CCCSC(=N)N)c4ccccc34)C(=O)NC2=O)c2ccccc21 [Bisindolylmaleimide IX (Ro 31-8220 Mesylate)] | 0.788 | 0.942
2 | O=C(O)C(=O)CBr [Bromopyruvic acid] | 0.834 | 0.992
3 | CCOC(=O)Nc1cc(-c2ccc(C)c(NS(C)(=O)=O)c2)nn2c(C)nnc12 [Bromosporine] | 0.801 | 0.878
4 | CS(=O)(=O)OCCCCOS(C)(=O)=O [Busulfan] | 0.814 | 0.948
5 | Clc1ccc(C(c2c[nH]c3ccccc23)c2c[nH]c3ccccc23)cc1 [C-DIM12] | 0.897 | 0.92
6 | O=C(Cc1cccc(OC(F)(F)F)c1)Nc1ccc(CCCCc2nnc(NC(=O)Cc3ccccn3)s2)nn1 [CB-839] | 0.597 | 0.596
7 | Cc1cc2c(C(N)=O)cccc2n1-c1nc2c(c(NCc3ccccc3)n1)COCC2 [CB-5083] | 0.643 | 1.01
8 | CCN1C(=O)CNc2ncc(-c3ccc(-c4nc[nH]n4)nc3C)nc21 [CC-115] | 0.7 | 0.718
9 | COc1ccc(N2C(=O)/C(=C\c3ccc([N+](=O)[O-])s3)SC2=S)cc1 [CCF642] | 0.874 | 0.746
10 | CCS(=O)(=O)N1CCC([C@@H](C)n2c(C)c(C(=O)NCc3c(OC)cc(C)[nH]c3=O)c3ccccc32)CC1 [CPI-169] | 0.874 | 0.924
11 | Cc1sc2c(c1C)C(c1ccc(Cl)cc1)=N[C@@H](CC(N)=O)c1nnc(C)n1-2 [CPI-203] | 0.597 | 0.877
12 | CC(C)c1c(-c2ccccc2)nc2c(C#N)c[nH]n2c1=O [CPI-455 HCl] | 0.898 | 0.972
13 | O=C(O)CCCCC(CCSCc1ccccc1)SCc1ccccc1 (configuration not stated) [CPI-613] | 0.902 | 0.897
14 | C#Cc1cccc(Nc2ncnc3cc(OC)c(OCCCCCCC(=O)NO)cc23)c1 [CUDC-101] | 0.765 | 0.827
15 | O=C(O)c1cc(I)ccc1NC(=O)[C@H](Cc1ccccc1)NCc1ccccc1 [CW069] | 0.842 | 0.937
16 | COc1cc2nccc(Oc3ccc(NC(=O)C4(C(=O)Nc5ccc(F)cc5)CC4)cc3)c2cc1OC [Cabozantinib malate (XL184)] | 0.78 | 0.585
17 | CC(C)C[C@H](NC(=O)[C@H](CCc1ccccc1)NC(=O)CN1CCOCC1)C(=O)N[C@@H](Cc1ccccc1)C(=O)N[C@@H](CC(C)C)C(=O)[C@@]1(C)CO1 [Carfilzomib (PR-171)] | 0.0368 | 0.126
18 | COc1cc2c(Oc3ccc4[nH]c(C)cc4c3F)ncnc2cc1OCCCN1CCCC1 [Cediranib (AZD2171)] | 0.83 | 0.927
19 | Cc1ccc(-c2cc(C(F)(F)F)nn2-c2ccc(S(N)(=O)=O)cc2)cc1 [Celecoxib] | 0.892 | 0.935
20 | Cc1cc(Nc2ncc(Cl)c(Nc3ccccc3S(=O)(=O)C(C)C)n2)c(OC(C)C)cc1C1CCNCC1 [Ceritinib (LDK378)] | 0.685 | 0.823
21 | CN1C(=O)[C@@]23C[C@]4([C@]56C[C@@]78SS[C@@](CO)(C(=O)N7[C@H]5Nc5ccccc56)N(C)C8=O)c5ccccc5N[C@@H]4N2C(=O)[C@]1(CO)SS3 [Chaetocin] | 0.0212 | 0.192
22 | NC(=O)c1ccc2nc(-c3ccc(Oc4ccc(Cl)cc4)cc3)[nH]c2c1 [Chk2 Inhibitor II (BML-277)] | 0.865 | 0.967
23 | N.N.[Cl][Pt][Cl] [Cisplatin] | 0.86 | 0.95
24 | O=C(c1ccc(F)c(F)c1Nc1ccc(I)cc1F)N1CC(O)([C@@H]2CCCCN2)C1 [Cobimetinib (GDC-0973, RG7420)] | 0.26 | 0.639
25 | COc1cc2c(c(OC)c1OC)-c1ccc(OC)c(=O)cc1[C@@H](NC(C)=O)CC2 [Colchicine] | 0.589 | 0.562
26 | O=P1(N(CCCl)CCCl)NCCCO1 (configuration not stated) [Cyclophosphamide Monohydrate] | 0.899 | 0.927

Row | SMILES | normalised area under dose-response curve [1] | normalised area under dose-response curve [2]
27 | Nc1cccc(S(=O)(=O)N2CCCN(S(=O)(=O)c3ccc4c(c3)OCCO4)CC2)c1 [DASA-58] | 0.808 | 0.918
28 | CCN1CCN(Cc2ccc(C(=O)Nc3ccc(C)c(Oc4ccc5c(c4)CC(=O)N5)c3)cc2C(F)(F)F)CC1 [DDR1-IN-1] | 0.908 | 0.934
29 | CCOc1ccc(Cc2cc([C@@H]3O[C@H](CO)[C@@H](O)[C@H](O)[C@H]3O)ccc2Cl)cc1 [Dapagliflozin] | 0.913 | 0.943
30 | Cc1nc(Nc2ncc(C(=O)Nc3c(C)cccc3Cl)s2)cc(N2CCN(CCO)CC2)n1 [Dasatinib hydrochloride] | 0.468 | 0.377
31 | Nc1ncn([C@H]2C[C@H](O)[C@@H](CO)O2)c(=O)n1 [Decitabine] | 0.82 | 0.909
32 | CCC[C@H](NC(=O)/C(C#N)=C/c1cccc(Br)n1)c1ccccc1 [Degrasyn (WP1130)] | 0.82 | 0.869
33 | COc1cc2c(cc1OC)[C@@H]1C(=O)c3ccc4c(c3O[C@@H]1CO2)C=CC(C)(C)O4 [Deguelin] | 0.75 | 0.886
34 | CN1CCN(c2ccc3nc(-c4c(N)c5c(F)cccc5[nH]c4=O)[nH]c3c2)CC1 [Dovitinib (TKI258) Lactate] | 0.904 | 1.01
35 | COc1cccc2c1C(=O)c1c(O)c3c(c(O)c1C2=O)CC(O)(C(=O)CO)CC3OC1CC(N)C(O)C(C)O1 (configuration not stated) [Doxorubicin (Adriamycin) HCl] | 0.584 | 0.672
36 | Cc1cc(Cl)ccc1OCCCC(=O)NO [Droxinostat] | 0.936 | 0.946
37 | CS(=O)(=O)c1ccc(-c2cnc(NCc3ccco3)n3cnnc23)cc1 [EED226] | 0.846 | 0.955
38 | CN(NC(=O)CC(=O)NN(C)C(=S)c1ccccc1)C(=S)c1ccccc1 [Elesclomol (STA-4783)] | 0.0189 | 0.179
39 | NC(=O)/C(=C/n1cnc(-c2cc(C(F)(F)F)cc(C(F)(F)F)c2)n1)c1cncnc1 [Eltanexor (KPT-8602)] | 0.579 | 0.574
40 | CC(C)(O)CNc1nc(Nc2ccnc(C(F)(F)F)c2)nc(-c2cccc(C(F)(F)F)n2)n1 [Enasidenib (AG-221)] | 0.875 | 0.97
41 | Nc1ccccc1NC(=O)c1ccc(CNC(=O)OCc2cccnc2)cc1 [Entinostat (MS-275)] | 0.73 | 0.835
42 | c1cn2cc(-c3ccc4cn[nH]c4c3)nc(Nc3ccc(N4CCOCC4)cc3)c2n1 [Entospletinib (GS-9973)] | 0.792 | 0.891
43 | CN1CCN(c2ccc(C(=O)Nc3n[nH]c4ccc(Cc5cc(F)cc(F)c5)cc34)c(NC3CCOCC3)c2)CC1 [Entrectinib (RXDX-101)] | 0.706 | 0.813
44 | CCOc1ccccc1-n1c(C(C)N2CCN(C(=O)COc3ccc(Cl)cc3)CC2)nc2ccccc2c1=O (configuration not stated) [Erastin] | 0.813 | 0.856
45 | C#Cc1cccc(Nc2ncnc3cc(OCCOC)c(OCCOC)cc23)c1 [Erlotinib] | 0.7 | 0.902
46 | COc1cc([C@@H]2c3cc4c(cc3[C@@H](O[C@@H]3O[C@@H]5CO[C@@H](C)O[C@H]5[C@H](O)[C@H]3O)[C@H]3COC(=O)[C@H]23)OCO4)cc(OC)c1O [Etoposide] | 0.853 | 0.946
47 | Cc1cc([N+](=O)[O-])ccc1NS(=O)(=O)c1cc(Cl)ccc1Cl [FH535] | 0.922 | 0.91
48 | CC1=C(C(=O)OC2CCCCC2)C(c2ccc([N+](=O)[O-])cc2)C2=C(CC(C)(C)CC2=O)N1 (configuration not stated) [FLI-06] | 0.792 | 0.936
49 | O=c1[nH]cc(F)c(=O)[nH]1 [Fluorouracil (5-Fluoracil, 5-FU)] | 0.804 | 0.854
50 | CC(C)n1c(/C=C/C(O)CC(O)CC(=O)O)c(-c2ccc(F)cc2)c2ccccc21 (configuration not stated) [Fluvastatin Sodium] | 0.807 | 0.87
51 | CN[C@@H](C)C(=O)N[C@H](C(=O)N1CCC[C@H]1C(=O)Nc1snnc1-c1ccccc1)C1CCCCC1 [GDC-0152] | 0.849 | 0.667
